# Reference: BindingDB's records for doi:10.7270/Q2QV3JZ2 (Vanderbilt Screening Center for GPCRs, Ion Channels and …, 2009)
# Molecular target: T1, Solute carrier family 12 member 5 (Homo sapiens, UniProt Q9H2X9)
# T1 sequence (Q9H2X9 whole entry): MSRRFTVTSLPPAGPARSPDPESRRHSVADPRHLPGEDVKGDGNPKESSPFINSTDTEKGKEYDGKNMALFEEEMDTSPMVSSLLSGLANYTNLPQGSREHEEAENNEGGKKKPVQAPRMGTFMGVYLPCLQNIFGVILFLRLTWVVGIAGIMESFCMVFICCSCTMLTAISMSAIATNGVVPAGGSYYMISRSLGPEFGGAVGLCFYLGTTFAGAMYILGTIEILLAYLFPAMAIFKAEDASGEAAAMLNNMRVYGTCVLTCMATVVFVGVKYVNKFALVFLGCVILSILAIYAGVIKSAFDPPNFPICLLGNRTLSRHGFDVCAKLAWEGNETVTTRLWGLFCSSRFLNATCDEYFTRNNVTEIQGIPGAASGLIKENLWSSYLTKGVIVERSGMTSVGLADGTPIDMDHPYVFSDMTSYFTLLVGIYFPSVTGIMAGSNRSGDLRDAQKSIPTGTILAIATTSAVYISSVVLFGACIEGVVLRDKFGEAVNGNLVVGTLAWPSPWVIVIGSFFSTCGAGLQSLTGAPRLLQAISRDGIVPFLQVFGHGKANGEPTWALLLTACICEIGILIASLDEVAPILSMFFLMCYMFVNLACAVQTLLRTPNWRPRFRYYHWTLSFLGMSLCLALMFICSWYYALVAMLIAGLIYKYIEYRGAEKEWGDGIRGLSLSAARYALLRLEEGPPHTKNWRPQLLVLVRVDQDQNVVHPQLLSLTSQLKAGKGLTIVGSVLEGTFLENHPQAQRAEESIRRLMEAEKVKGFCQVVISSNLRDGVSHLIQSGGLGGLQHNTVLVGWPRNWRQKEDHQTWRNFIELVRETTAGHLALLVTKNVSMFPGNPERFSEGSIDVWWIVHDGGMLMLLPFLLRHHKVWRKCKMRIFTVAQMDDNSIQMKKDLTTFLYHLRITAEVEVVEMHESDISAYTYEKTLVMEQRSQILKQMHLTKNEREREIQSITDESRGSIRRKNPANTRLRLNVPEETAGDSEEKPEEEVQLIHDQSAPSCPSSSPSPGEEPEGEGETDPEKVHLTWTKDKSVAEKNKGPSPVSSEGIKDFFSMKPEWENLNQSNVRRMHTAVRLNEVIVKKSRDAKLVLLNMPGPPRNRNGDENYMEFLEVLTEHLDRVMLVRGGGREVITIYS
# Assay: KCC2 cotransport modulators, dose response, cell-based, assay 2 (AID 1723)
# Details: not given
row,EC50 [µM],Compound
1,23.6,O=C(C=Cc1ccccc1)CC(=O)c1ccccc1O [MLS000627068]
2,1.42,Cc1nn(-c2nc3ccccc3[nH]2)c(N)c1-c1ccccc1 [MLS000063763]
3,1.33,CCOc1cccc(C(=O)NC(=S)Nc2cccc(C)c2)c1 [3-ethoxy-N-(m-tolylthiocarbamoyl)benzamide]
4,148,O=[N+]([O-])c1ccccc1C=C[CH+][N-]n1c(-c2ccc(Cl)cc2)n[nH]c1=S [MLS000555506]
5,14.9,"S=C(NCCc1ccccc1)NN=Cc1cccc(Cl)c1Cl [1-[(2,3-dichlorobenzylidene)amino]-3-phenethyl-thiourea]"
6,17,CC(C)c1ccc(OCC(=O)NNC(=O)c2cnccn2)cc1 [MLS000332605]
7,976,"CCOc1[nH]n(-c2ccccc2)c(=O)c1C=Nc1ccc(F)cc1F [(4E)-4-[[[2,4-bis(fluoranyl)phenyl]amino]methylidene]-5-ethoxy-2-phenyl-pyrazol-3-one]"
8,25.4,"Fc1cccc(F)c1C=NNC(=S)Nc1cccnc1 [1-[(2,6-difluorobenzylidene)amino]-3-(3-pyridyl)thiourea]"
9,8.04,O=C1OC(c2ccc(O)cc2)(c2ccc(O)cc2)c2ccccc21
10,16.1,Cc1[nH]n2c(=O)cc(C(C)C)nc2c1-c1ccccc1
11,11.2,S=c1nc(-c2ccc3c(c2)CCO3)cc[nH]1
12,2.46,COC(=O)c1sccc1NC(=S)OC [3-(methoxycarbothioylamino)thiophene-2-carboxylic acid methyl ester]
13,9.51,Cc1cccc(N2CCN(C(=O)CCCn3c(=S)[nH]c4cc5c(cc4c3=O)OCO5)CC2)c1C [MLS000095366]
14,12,COc1cc(NC(=S)NC(=O)c2ccco2)ccc1NC(=O)C(C)C [MLS000672338]
15,5.71,NC(=S)NN=C1C(=O)N(Cc2ccc(F)cc2)c2ccccc21 [1-[(Z)-[1-[(4-fluorophenyl)methyl]-2-oxidanylidene-indol-3-ylidene]amino]thiourea]
16,0.507,O=[N+]([O-])c1ccc(-c2cn(-c3ccccc3F)c(=S)[nH]2)cc1
17,49,"Oc1ccccc1CN=Nc1nc2ccccc2o1 [(6E)-6-[(1,3-benzoxazol-2-ylhydrazo)methylidene]-1-cyclohexa-2,4-dienone]"
18,8.8,O=c1c2ccccc2[nH]c(=S)n1CCN1CCC(=C(c2ccc(F)cc2)c2ccc(F)cc2)CC1 [SMR000058550]
19,74,"O=C(NC(=S)Nc1nc(-c2cccc([N+](=O)[O-])c2)cs1)c1ccccc1Cl [2-chloranyl-N-[[4-(3-nitrophenyl)-1,3-thiazol-2-yl]carbamothioyl]benzamide]"

# Same assay, conditions: inactive by the depositor's call
row,EC50 [µM],Compound
1,47,Cc1ccc(-c2ccc(C=NNC(N)=S)o2)cc1 [1-[[5-(4-methylphenyl)furan-2-yl]methylideneamino]thiourea]
